# Tested on: HIV-infected subjects
# Assay: Safety and tolerability (TEAEs, ECG, laboratory) after repeated oral administration, phase 2a study
# Type: in vivo, human
# Conditions: for Subjects experiencing at least one TEAE: Abdominal pain / Subjects experiencing at least one TEAE: Arthralgia / Subjects experiencing at least one TEAE: Back pain / Subjects experiencing at least one TEAE: Diarrhea / Subjects experiencing at least one TEAE: Flank pain / Subjects experiencing at least one TEAE: Gastrointestinal disorders / Subjects experiencing at least one TEAE: Headache / Subjects experiencing at least one TEAE: Injury, poisoning, and procedural complications / Subjects experiencing at least one TEAE: Musculoskeletal and connective tissue disorders / Subjects experiencing at least one TEAE: Nausea / Subjects experiencing at least one TEAE: Neck pain / Subjects experiencing at least one TEAE: Nervous system disorders / Subjects experiencing at least one TEAE: Pain in extremity / Subjects experiencing at least one TEAE: Sciatica, back pain / Subjects experiencing at least one TEAE: Skin abrasion / Subjects experiencing at least one TEAE: Total / Subjects experiencing at least one TEAE: Upper abdominal pain / Subjects experiencing at least one TEAE: Vomiting: fasted
# Experimental: Participants were assigned to one of eight groups; each group (with one exception) included eight subjects receiving either ABX464 (n = 6) or the corresponding placebo (n = 2) according to a randomization code. […] In the present study with HIV-infected subjects, the first dose administered was 25 mg, given once or 3 times a day over a 2- to 3-week period. This initial dose was therefore considered safe for assessment of the safety and tolerability of ABX464 after repeated oral administrations in subjects infected by HIV and determination of the potential effect on the HIV viral load.
# The final dosing protocol for each of the eight groups was as follows: group 1, 25 mg every 3 days for 2 to 3 weeks under fasted conditions; group 2, 25 mg once a day (q.d.) for 2 to 3 weeks under fasted conditions; group 3, 50 mg once a day for 2 to 3 weeks under fasted conditions; group 4, 50 mg 3 times a day (t.i.d.) for 4 weeks under fed conditions; group 5, 75 mg once a day for 2 weeks under fed conditions; group 6, 100 mg once a day for 2 to 3 weeks under fasted conditions; group 7, 150 mg every 3 days for 2 to 3 weeks under fed conditions; and group 8, 150 mg once a day for 2 weeks under fed conditions. Per the study protocol, the treatment period was defined as 2 weeks. […] The decision to proceed to the next highest dose was determined by the data and safety monitoring board after review of the laboratory safety data, vital signs, ECGs, and adverse event reports from the group receiving the current dose after 2 weeks of treatment.
# Subjects were hospitalized from the day prior to the first dose to at least the morning of day 2. They were orally dosed with 25-mg capsules of ABX464 with 240 ml water under fed or fasted conditions. According to the group, subjects were dosed with 1, 2, 3, 4, or 6 capsules to deliver 25 mg, 50 mg, 75 mg, 100 mg, or 150 mg product, respectively, or the same number of placebo capsules.
# Safety assessments and laboratory tests were carried out according to the schedules described in Table S4 for groups dosed every day, every 3 days, and 3 times a day. Follow-up visits were scheduled for 7 days after the last dose and subsequently once every week in order to assess the elimination of the main ABX464 metabolite and to assess the viral load. Follow-up visits were terminated when the virus load was within 0.5 log of the baseline value or after 3 follow-up visits, whichever came first. Prior to the statistical analyses, AEs were coded using the Medical Dictionary for Regulatory Activities (MedDRA dictionary; last available version) in order to be tabulated by system organ class (SOC) and preferred term (PT). The AEs were analyzed according to the treatment emergence phase from the first study drug administration on day 1 up to 48 h after the last study drug administration. The number and percentage of subjects with at least one TEAE were tabulated by SOC and PT for each group and dose. The number of occurrences of TEAEs was also analyzed in the same way by SOC and PT for each group and dose, by grade of severity for each group and dose, and by level of causality to the study drug for each group and dose.
# [1] = Group 1 (n = 6), 25 mg every 3 days, Mild
# [2] = Group 1 (n = 6), 25 mg every 3 days, Moderate
# [3] = Group 2 (n = 6), 25 mg q.d., Mild
# [4] = Group 2 (n = 6), 25 mg q.d., Moderate
smiles,measurement,setting,value
FC(F)(F)Oc1ccc(Nc2ccc3cccc(Cl)c3n2)cc1 [ABX464],Nausea frequency,75 mg q.d.,66.7%
same,Subjects with a skin rash episode,"75 mg q.d. under fed conditions, one episode of moderate intensity",two
same,Subjects with vomiting episodes,150 mg every 3 days,50.0%
same,Nausea frequency,150 mg q.d.,100%
same,Subjects reporting vomiting,"16 subjects overall, no vomiting episodes in placebo",32%
same,Severity of adverse events,ABX464 treatment group,mild to moderate
same,TEAEs leading to treatment discontinuation,ABX464 treatment group,none of the TEAEs led to treatment discontinuation
same,Subjects reporting at least one episode of headache,ABX464 treatment groups,56%
same,Subjects experiencing at least one TEAE: Abdominal pain,[1],0 (0.0) No. (%)
same,Subjects experiencing at least one TEAE: Arthralgia,[1],0 (0.0) No. (%)
same,Subjects experiencing at least one TEAE: Back pain,[1],0 (0.0) No. (%)
same,Subjects experiencing at least one TEAE: Diarrhea,[1],0 (0.0) No. (%)
same,Subjects experiencing at least one TEAE: Flank pain,[1],0 (0.0) No. (%)
same,Subjects experiencing at least one TEAE: Gastrointestinal disorders,[1],2 (33.3) No. (%)
same,Subjects experiencing at least one TEAE: Headache,[1],0 (0.0) No. (%)
same,"Subjects experiencing at least one TEAE: Injury, poisoning, and procedural complications",[1],0 (0.0) No. (%)
same,Subjects experiencing at least one TEAE: Musculoskeletal and connective tissue disorders,[1],0 (0.0) No. (%)
same,Subjects experiencing at least one TEAE: Nausea,[1],1 (16.7) No. (%)
same,Subjects experiencing at least one TEAE: Neck pain,[1],0 (0.0) No. (%)
same,Subjects experiencing at least one TEAE: Nervous system disorders,[1],0 (0.0) No. (%)
same,Subjects experiencing at least one TEAE: Pain in extremity,[1],0 (0.0) No. (%)
same,"Subjects experiencing at least one TEAE: Sciatica, back pain",[1],0 (0.0) No. (%)
same,Subjects experiencing at least one TEAE: Skin abrasion,[1],0 (0.0) No. (%)
same,Subjects experiencing at least one TEAE: Total,[1],2 (33.3) No. (%)
same,Subjects experiencing at least one TEAE: Upper abdominal pain,[1],0 (0.0) No. (%)
same,Subjects experiencing at least one TEAE: Vomiting,[1],1 (16.7) No. (%)
same,Subjects experiencing at least one TEAE: Abdominal pain,[2],0 (0.0) No. (%)
same,Subjects experiencing at least one TEAE: Arthralgia,[2],0 (0.0) No. (%)
same,Subjects experiencing at least one TEAE: Back pain,[2],0 (0.0) No. (%)
same,Subjects experiencing at least one TEAE: Diarrhea,[2],0 (0.0) No. (%)
same,Subjects experiencing at least one TEAE: Flank pain,[2],0 (0.0) No. (%)
same,Subjects experiencing at least one TEAE: Headache,[2],0 (0.0) No. (%)
same,"Subjects experiencing at least one TEAE: Injury, poisoning, and procedural complications",[2],0 (0.0) No. (%)
same,Subjects experiencing at least one TEAE: Musculoskeletal and connective tissue disorders,[2],1 (16.7) No. (%)
same,Subjects experiencing at least one TEAE: Nausea,[2],0 (0.0) No. (%)
same,Subjects experiencing at least one TEAE: Neck pain,[2],0 (0.0) No. (%)
same,Subjects experiencing at least one TEAE: Nervous system disorders,[2],0 (0.0) No. (%)
same,Subjects experiencing at least one TEAE: Pain in extremity,[2],0 (0.0) No. (%)
same,"Subjects experiencing at least one TEAE: Sciatica, back pain",[2],1 (16.7) No. (%)
same,Subjects experiencing at least one TEAE: Skin abrasion,[2],0 (0.0) No. (%)
same,Subjects experiencing at least one TEAE: Total,[2],2 (33.3) No. (%)
same,Subjects experiencing at least one TEAE: Upper abdominal pain,[2],0 (0.0) No. (%)
same,Subjects experiencing at least one TEAE: Vomiting,[2],0 (0.0) No. (%)
same,Subjects experiencing at least one TEAE: Abdominal pain,[3],0 (0.0) No. (%)
same,Subjects experiencing at least one TEAE: Arthralgia,[3],0 (0.0) No. (%)
same,Subjects experiencing at least one TEAE: Back pain,[3],1 (16.7) No. (%)
same,Subjects experiencing at least one TEAE: Diarrhea,[3],1 (16.7) No. (%)
same,Subjects experiencing at least one TEAE: Flank pain,[3],0 (0.0) No. (%)
same,Subjects experiencing at least one TEAE: Gastrointestinal disorders,[3],2 (33.3) No. (%)
same,Subjects experiencing at least one TEAE: Headache,[3],1 (16.7) No. (%)
same,"Subjects experiencing at least one TEAE: Injury, poisoning, and procedural complications",[3],0 (0.0) No. (%)
same,Subjects experiencing at least one TEAE: Musculoskeletal and connective tissue disorders,[3],1 (16.7) No. (%)
same,Subjects experiencing at least one TEAE: Nausea,[3],0 (0.0) No. (%)
same,Subjects experiencing at least one TEAE: Neck pain,[3],0 (0.0) No. (%)
same,Subjects experiencing at least one TEAE: Nervous system disorders,[3],1 (16.7) No. (%)
same,Subjects experiencing at least one TEAE: Pain in extremity,[3],0 (0.0) No. (%)
same,"Subjects experiencing at least one TEAE: Sciatica, back pain",[3],0 (0.0) No. (%)
same,Subjects experiencing at least one TEAE: Skin abrasion,[3],0 (0.0) No. (%)
same,Subjects experiencing at least one TEAE: Total,[3],2 (33.3) No. (%)
same,Subjects experiencing at least one TEAE: Upper abdominal pain,[3],0 (0.0) No. (%)
same,Subjects experiencing at least one TEAE: Vomiting,[3],2 (33.3) No. (%)
same,Subjects experiencing at least one TEAE: Abdominal pain,[4],0 (0.0) No. (%)
same,Subjects experiencing at least one TEAE: Arthralgia,[4],0 (0.0) No. (%)
same,Subjects experiencing at least one TEAE: Back pain,[4],0 (0.0) No. (%)
same,Subjects experiencing at least one TEAE: Diarrhea,[4],0 (0.0) No. (%)
same,Subjects experiencing at least one TEAE: Flank pain,[4],0 (0.0) No. (%)
same,Subjects experiencing at least one TEAE: Headache,[4],0 (0.0) No. (%)
same,"Subjects experiencing at least one TEAE: Injury, poisoning, and procedural complications",[4],0 (0.0) No. (%)
same,Subjects experiencing at least one TEAE: Musculoskeletal and connective tissue disorders,[4],0 (0.0) No. (%)
same,Subjects experiencing at least one TEAE: Nausea,[4],0 (0.0) No. (%)
same,Subjects experiencing at least one TEAE: Neck pain,[4],0 (0.0) No. (%)
same,Subjects experiencing at least one TEAE: Nervous system disorders,[4],0 (0.0) No. (%)
same,Subjects experiencing at least one TEAE: Pain in extremity,[4],0 (0.0) No. (%)
same,"Subjects experiencing at least one TEAE: Sciatica, back pain",[4],0 (0.0) No. (%)
same,Subjects experiencing at least one TEAE: Skin abrasion,[4],0 (0.0) No. (%)

# — publication PMC5487684, “Safety, Pharmacokinetics, and Antiviral Activity of a Novel HIV Antiviral, ABX464, in Treatment-Naive HIV-Infected Subjects in a Phase 2 Randomized, Controlled Study” (Antimicrobial Agents and Chemotherapy, 2017)
